Target: T1, Notum (Homo sapiens, UniProt Q6P988, C330S)
T1 sequence (Q6P988 81-451 C330S): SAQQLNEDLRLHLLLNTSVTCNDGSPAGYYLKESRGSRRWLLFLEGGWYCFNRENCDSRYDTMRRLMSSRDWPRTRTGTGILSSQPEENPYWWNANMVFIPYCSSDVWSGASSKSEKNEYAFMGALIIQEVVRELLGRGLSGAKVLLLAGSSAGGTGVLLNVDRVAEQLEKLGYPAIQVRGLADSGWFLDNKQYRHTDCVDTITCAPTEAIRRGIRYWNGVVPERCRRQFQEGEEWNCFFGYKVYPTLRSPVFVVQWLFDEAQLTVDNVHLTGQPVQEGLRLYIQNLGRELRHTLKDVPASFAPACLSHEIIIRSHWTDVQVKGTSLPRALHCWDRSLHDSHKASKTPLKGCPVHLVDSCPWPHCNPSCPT
Test: X-ray crystal structure ([…] Å); thermal shift (Tm […] to […] °C); OPTS enzyme inhibition IC50
Format: biochemical

CC(=O)NCCc1c[nH]c2ccc(O)cc12 [ASE, N‐acetylserotonin]
IC50: 94 µM

Reference: publication PMC7027535 (Journal of Pineal Research, 2020)
